Reference: ChEMBL document CHEMBL4311992, “Discovery of 3-(((9H-purin-6-yl)amino)methyl)-4,6-dimethylpyridin-2(1H)-one derivatives as novel tubulin polymerization inhibitors for treatment of cancer” (Eur J Med Chem, 2019)
Activity calls are given as the source filed them. The calls are words filed in the database; no cut-off is given here.

Columns and labels:
[1] = test system: Angiopoietin-1 receptor (Homo sapiens), Q02763 [Q939H,Q940H]; test: Inhibition of human Tie2 Q939H/Q940H mutant (771 to end residues) using poly(Glu, Tyr) 4:1 as substrate measured after 40 mins in presence of [gamma33P]ATP by scintillation counting method; set-up: scale not given: the % may be the effect or the level left
[2] = biological target: PI3K p110 beta/p85 alpha (Homo sapiens) (UniProt P27986+P42338); test: Inhibition of recombinant full-length human PI3K p110beta/p85alpha assessed as residual activity at 10 uM using phosphatidylinositol-4, 5-bisphosphate as substrate measured after 40 mins by fluorescence assay; type: protein-complex assay
[3] = biological target: Mitogen-activated protein kinase kinase kinase 9 (Homo sapiens) (UniProt P80192); test: Inhibition of recombinant human MLK1 (134 to 414 residues) assessed as residual activity at 10 uM using casein as substrate measured after 40 mins in presence of [gamma33P]ATP by scintillation counting method
[4] = biological target: Activin receptor type-1-like (Homo sapiens) (UniProt P37023); test: Inhibition of recombinant human ALK1 (142 to end residues) assessed as residual activity at 10 uM using casein as substrate measured after 40 mins in presence of [gamma33P]ATP by scintillation counting method
[5] = biological target: Tyrosine-protein kinase ITK/TSK (Homo sapiens) (UniProt Q08881); test: Inhibition of recombinant human ITK (352 to 617 residues) assessed as residual activity at 10 uM using myelin basic protein as substrate measured after 40 mins in presence of [gamma33P]ATP by scintillation counting method
Sequence of Tyrosine-protein kinase ITK/TSK (Homo sapiens) (Q08881 whole entry, the tested form may be a part): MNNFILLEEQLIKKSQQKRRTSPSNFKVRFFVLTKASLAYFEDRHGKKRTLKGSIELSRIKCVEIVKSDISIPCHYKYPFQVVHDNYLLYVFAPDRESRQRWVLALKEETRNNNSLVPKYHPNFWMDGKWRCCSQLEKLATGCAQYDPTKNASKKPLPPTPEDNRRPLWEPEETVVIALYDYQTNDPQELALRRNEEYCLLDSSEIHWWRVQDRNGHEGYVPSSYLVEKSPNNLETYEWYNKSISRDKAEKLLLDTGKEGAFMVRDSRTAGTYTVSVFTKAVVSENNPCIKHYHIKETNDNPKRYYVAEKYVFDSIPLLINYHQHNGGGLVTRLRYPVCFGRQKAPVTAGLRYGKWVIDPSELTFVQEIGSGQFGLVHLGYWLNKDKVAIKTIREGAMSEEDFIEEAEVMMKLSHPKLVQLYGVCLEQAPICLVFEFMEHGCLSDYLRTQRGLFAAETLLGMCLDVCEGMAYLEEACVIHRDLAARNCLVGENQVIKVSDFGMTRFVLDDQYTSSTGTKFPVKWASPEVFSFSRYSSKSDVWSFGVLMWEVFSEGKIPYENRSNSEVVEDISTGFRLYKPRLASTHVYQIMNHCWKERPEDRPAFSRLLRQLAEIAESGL

[6] = test system: SW-620; test: Inhibition of colony formation in human SW620 cells at 50 nM after 14 days by crystal violet staining-based microscopic analysis; type: functional; details: SW-620, 336 h
[7] = biological target: NT-3 growth factor receptor (Homo sapiens) (UniProt Q16288); test: Inhibition of human TrkC (510 to end residues) using GEEPLYWSFPAKKK as substrate measured after 40 mins in presence of [gamma33P]ATP by scintillation counting method; set-up: scale not given: the % may be the effect or the level left
[8] = test system: Fibroblast growth factor receptor 2 (Homo sapiens), P21802 [N549H]; test: Inhibition of recombinant human FGFR2 N549H mutant (456 to 770 residues) assessed as residual activity at 10 uM using GGEEEEYFELVKKKK as substrate measured after 40 mins in presence of [gamma33P]ATP by scintillation counting method
Sequence of Fibroblast growth factor receptor 2 (Homo sapiens), P21802 [N549H] (P21802 whole entry N549H, the tested form may be a part): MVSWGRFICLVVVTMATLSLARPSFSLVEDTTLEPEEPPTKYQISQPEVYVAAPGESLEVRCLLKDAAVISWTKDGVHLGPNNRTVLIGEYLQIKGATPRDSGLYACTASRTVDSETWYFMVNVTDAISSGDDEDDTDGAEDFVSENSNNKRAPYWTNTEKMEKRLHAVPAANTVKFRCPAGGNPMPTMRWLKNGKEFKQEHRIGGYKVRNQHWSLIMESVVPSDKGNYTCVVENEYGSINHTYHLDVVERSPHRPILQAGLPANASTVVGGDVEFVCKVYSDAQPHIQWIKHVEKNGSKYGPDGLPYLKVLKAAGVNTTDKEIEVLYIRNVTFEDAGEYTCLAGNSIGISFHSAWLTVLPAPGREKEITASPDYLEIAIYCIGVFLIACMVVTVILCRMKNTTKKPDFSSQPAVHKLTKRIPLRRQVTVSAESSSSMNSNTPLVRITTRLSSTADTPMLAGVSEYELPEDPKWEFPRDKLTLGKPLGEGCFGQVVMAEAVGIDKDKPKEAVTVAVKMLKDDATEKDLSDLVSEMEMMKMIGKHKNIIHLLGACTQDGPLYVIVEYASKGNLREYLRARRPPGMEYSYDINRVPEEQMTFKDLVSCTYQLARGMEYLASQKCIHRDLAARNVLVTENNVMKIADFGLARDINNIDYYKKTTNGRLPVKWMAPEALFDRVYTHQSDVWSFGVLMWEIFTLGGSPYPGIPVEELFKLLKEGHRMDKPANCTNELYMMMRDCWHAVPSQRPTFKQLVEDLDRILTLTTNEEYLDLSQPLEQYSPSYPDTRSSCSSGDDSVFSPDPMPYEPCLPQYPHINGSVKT

[9] = test system: HCT-116; test: Induction of apoptosis in human HCT116 cells assessed as increase in cleaved caspase9 expression measured after 48 hrs by Western blot analysis; type: functional, cell-based
[10] = biological target: [Pyruvate dehydrogenase (acetyl-transferring)] kinase isozyme 4, mitochondrial (Homo sapiens) (UniProt Q16654); test: Inhibition of recombinant full-length human PDHK4 assessed as residual activity at 10 uM using KKKYHGHSMSDPGVSYRT as substrate measured after 40 mins in presence of [gamma33P]ATP by scintillation counting method
[11] = test system: HCT-116; test: Induction of apoptosis in human HCT116 cells assessed as increase in Bax expression up to 200 nM measured after 48 hrs by Western blot analysis; type: functional, cell-based
[12] = biological target: Tau-tubulin kinase 1 (Homo sapiens) (UniProt Q5TCY1); test: Inhibition of human TTBK1 (1 to 479 residues) using Casein as substrate measured after 40 mins in presence of [gamma33P]ATP by scintillation counting method; set-up: scale not given: the % may be the effect or the level left
Sequence of Tau-tubulin kinase 1 (Homo sapiens) (Q5TCY1 whole entry, the tested form may be a part): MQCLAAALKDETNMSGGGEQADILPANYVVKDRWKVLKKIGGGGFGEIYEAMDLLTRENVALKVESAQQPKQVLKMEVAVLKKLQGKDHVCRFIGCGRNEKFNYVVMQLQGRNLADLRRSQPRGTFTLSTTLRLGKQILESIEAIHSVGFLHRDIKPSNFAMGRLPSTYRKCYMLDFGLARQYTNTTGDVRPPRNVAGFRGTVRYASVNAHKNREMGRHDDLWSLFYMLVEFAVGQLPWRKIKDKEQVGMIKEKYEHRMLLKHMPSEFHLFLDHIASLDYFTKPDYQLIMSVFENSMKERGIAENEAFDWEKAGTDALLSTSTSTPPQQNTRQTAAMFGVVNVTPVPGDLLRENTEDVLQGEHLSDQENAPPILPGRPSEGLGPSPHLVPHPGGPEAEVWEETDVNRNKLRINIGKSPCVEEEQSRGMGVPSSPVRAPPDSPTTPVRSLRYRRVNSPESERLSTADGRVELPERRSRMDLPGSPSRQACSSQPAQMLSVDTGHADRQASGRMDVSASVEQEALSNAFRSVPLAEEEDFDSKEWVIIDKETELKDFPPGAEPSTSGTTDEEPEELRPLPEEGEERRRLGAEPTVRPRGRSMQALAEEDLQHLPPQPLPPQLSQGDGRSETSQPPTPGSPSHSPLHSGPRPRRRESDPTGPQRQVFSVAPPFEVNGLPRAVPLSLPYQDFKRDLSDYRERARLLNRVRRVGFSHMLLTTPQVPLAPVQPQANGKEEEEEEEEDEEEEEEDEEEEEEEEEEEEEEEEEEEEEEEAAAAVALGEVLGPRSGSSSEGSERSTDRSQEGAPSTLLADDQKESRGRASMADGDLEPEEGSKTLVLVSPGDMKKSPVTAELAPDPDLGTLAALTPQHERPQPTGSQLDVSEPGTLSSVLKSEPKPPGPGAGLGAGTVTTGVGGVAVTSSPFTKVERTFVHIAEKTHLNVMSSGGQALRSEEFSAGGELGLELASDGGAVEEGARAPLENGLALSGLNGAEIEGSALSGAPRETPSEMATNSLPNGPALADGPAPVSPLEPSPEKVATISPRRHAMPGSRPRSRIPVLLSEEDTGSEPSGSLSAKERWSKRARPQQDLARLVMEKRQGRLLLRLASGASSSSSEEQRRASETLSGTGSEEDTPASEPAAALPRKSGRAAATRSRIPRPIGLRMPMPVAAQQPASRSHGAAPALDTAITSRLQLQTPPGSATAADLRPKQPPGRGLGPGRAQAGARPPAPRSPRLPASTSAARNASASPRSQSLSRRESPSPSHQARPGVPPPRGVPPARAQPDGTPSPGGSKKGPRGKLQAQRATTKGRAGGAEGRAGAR

[13] = test system: SW-620; test: Induction of apoptosis in human SW620 cells assessed as increase in cleaved PARP expression up to 200 nM measured after 48 hrs by Western blot analysis; type: functional, cell-based
[14] = biological target: Calcium/calmodulin-dependent protein kinase type II subunit delta (Homo sapiens) (UniProt Q13557); test: Inhibition of recombinant full-length human CaMK2delta assessed as residual activity at 10 uM using calmodulin as substrate measured after 40 mins in presence of [gamma33P]ATP by scintillation counting method
Sequence of Calcium/calmodulin-dependent protein kinase type II subunit delta (Homo sapiens) (Q13557 whole entry): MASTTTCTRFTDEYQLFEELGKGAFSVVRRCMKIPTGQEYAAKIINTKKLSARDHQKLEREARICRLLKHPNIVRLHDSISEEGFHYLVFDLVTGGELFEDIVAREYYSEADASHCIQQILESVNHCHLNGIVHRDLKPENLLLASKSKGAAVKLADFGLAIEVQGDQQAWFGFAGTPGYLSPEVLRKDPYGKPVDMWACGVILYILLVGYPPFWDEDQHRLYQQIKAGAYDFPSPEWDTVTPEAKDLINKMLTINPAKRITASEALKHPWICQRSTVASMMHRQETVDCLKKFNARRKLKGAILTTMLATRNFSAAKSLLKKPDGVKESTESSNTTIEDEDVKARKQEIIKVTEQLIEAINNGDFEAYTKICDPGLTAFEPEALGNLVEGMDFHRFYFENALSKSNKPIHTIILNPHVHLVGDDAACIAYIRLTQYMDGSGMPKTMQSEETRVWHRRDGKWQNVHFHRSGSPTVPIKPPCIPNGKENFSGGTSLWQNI

[15] = biological target: Histone-lysine N-methyltransferase EZH2 (Homo sapiens) (UniProt Q15910); test: Inhibition of EZH2 (unknown origin) at 1 uM relative to control
[16] = test system: SW-620; test: Induction of apoptosis in human SW620 cells measured after 48 hrs by Annexin V-FITC/propidium iodide staining-based flow cytometric analysis; type: functional, cell-based
[17] = biological target: Serine/threonine-protein kinase PLK1 (Homo sapiens) (UniProt P53350); test: Inhibition of recombinant full-length human Plk1 assessed as residual activity at 10 uM using casein as substrate measured after 40 mins in presence of [gamma33P]ATP by scintillation counting method
Sequence of Serine/threonine-protein kinase PLK1 (Homo sapiens) (P53350 whole entry): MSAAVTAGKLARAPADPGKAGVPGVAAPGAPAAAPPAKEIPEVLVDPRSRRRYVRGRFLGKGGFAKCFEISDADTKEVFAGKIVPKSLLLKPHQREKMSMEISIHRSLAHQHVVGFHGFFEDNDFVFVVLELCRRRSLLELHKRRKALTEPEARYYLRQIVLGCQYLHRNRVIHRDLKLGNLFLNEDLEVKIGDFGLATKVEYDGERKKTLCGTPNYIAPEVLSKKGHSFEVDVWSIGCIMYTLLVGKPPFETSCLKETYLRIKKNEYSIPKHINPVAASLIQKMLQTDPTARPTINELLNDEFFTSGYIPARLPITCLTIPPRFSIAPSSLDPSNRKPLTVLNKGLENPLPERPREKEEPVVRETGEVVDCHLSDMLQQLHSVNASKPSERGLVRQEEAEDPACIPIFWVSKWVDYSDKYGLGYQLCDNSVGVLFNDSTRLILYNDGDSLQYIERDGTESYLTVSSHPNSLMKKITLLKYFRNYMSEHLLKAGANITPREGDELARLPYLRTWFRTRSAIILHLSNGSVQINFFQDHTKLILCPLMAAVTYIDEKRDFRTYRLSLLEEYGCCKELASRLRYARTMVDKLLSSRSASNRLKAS

[18] = biological target: Homeodomain-interacting protein kinase 4 (Homo sapiens) (UniProt Q8NE63); test: Inhibition of recombinant full-length human HIPK4 assessed as residual activity at 10 uM using RRRFRPASPLRGPPK as substrate measured after 40 mins in presence of [gamma33P]ATP by scintillation counting method
[19] = organism: Homo sapiens; test: Inhibition of recombinant human Plk4 S34T mutant (1 to 273 residues) assessed as residual activity at 10 uM using casein as substrate measured after 40 mins in presence of [gamma33P]ATP by scintillation counting method
[20] = test system: Serine/threonine-protein kinase Chk2 (Homo sapiens), O96017 [I157T]; test: Inhibition of recombinant human CHK2 I157T mutant (5 to end residues) assessed as residual activity at 10 uM using KKKVSRSGLYRSPSMPENLNRPR as substrate measured after 40 mins in presence of [gamma33P]ATP by scintillation counting method
Sequence of Serine/threonine-protein kinase Chk2 (Homo sapiens), O96017 [I157T] (O96017 whole entry I157T): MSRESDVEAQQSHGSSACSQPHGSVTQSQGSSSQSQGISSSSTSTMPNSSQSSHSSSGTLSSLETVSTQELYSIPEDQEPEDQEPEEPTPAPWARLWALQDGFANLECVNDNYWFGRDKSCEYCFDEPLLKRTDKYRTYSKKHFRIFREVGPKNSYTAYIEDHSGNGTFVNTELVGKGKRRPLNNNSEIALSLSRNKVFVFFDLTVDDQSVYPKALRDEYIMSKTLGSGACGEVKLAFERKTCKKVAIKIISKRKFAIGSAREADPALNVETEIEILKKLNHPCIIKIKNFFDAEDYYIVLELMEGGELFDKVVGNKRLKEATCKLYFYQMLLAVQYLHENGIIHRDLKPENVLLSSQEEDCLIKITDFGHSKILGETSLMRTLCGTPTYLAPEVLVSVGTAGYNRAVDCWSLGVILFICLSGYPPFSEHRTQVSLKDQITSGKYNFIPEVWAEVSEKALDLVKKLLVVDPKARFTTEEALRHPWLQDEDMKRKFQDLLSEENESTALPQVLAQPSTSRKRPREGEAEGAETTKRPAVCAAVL

[21] = biological target: Calcium/calmodulin-dependent protein kinase type 1B (Homo sapiens) (UniProt Q6P2M8); test: Inhibition of recombinant full-length human CaMK1beta assessed as residual activity at 10 uM using calmodulin as substrate measured after 40 mins in presence of [gamma33P]ATP by scintillation counting method
Sequence of Calcium/calmodulin-dependent protein kinase type 1B (Homo sapiens) (Q6P2M8 whole entry): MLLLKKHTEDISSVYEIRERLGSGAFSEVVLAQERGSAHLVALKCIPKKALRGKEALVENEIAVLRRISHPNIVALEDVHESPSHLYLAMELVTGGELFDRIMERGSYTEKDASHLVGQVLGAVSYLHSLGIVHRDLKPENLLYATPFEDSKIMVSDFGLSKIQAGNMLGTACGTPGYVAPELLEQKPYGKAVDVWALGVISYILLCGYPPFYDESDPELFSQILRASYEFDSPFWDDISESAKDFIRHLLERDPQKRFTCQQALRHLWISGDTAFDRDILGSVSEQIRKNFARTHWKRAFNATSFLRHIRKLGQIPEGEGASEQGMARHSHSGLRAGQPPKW

[22] = biological target: Eukaryotic translation initiation factor 2-alpha kinase 1 (Homo sapiens) (UniProt Q9BQI3); test: Inhibition of recombinant human HRI (140 to end residues) assessed as residual activity at 10 uM using RSRSRSRSRSRSRSR as substrate measured after 120 mins in presence of [gamma33P]ATP by scintillation counting method
[23] = biological target: FKBP12A/mTOR (Homo sapiens) (UniProt P62942+P42345); test: Inhibition of recombinant full-length human mTOR/FKBP12 assessed as residual activity at 10 uM measured after 40 mins in presence of [gamma33P]ATP by scintillation counting method; type: protein-complex assay
Sequence of FKBP12A/mTOR (Homo sapiens) (P62942 2-108 limits assumed, other chains not shown): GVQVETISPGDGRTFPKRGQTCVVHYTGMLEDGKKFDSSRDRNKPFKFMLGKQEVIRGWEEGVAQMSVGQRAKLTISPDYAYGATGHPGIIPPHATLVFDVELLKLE

[24] = test system: Mast/stem cell growth factor receptor Kit (Homo sapiens), P10721 [D816H]; test: Inhibition of recombinant human c-Kit D816H mutant (544 to end residues) assessed as residual activity at 10 uM using GGMEDIYFEFMGGKKK as substrate measured after 40 mins in presence of [gamma33P]ATP by scintillation counting method
[25] = biological target: Mitogen-activated protein kinase kinase kinase 3 (Homo sapiens) (UniProt Q99759); test: Inhibition of recombinant full-length human MEKK3 assessed as residual activity at 10 uM using myelin basic protein as substrate measured after 40 mins in presence of [gamma33P]ATP by scintillation counting method

**Q.** `Cc1cc(C)c(CNc2nc(Cl)nc3c2ncn3C2CCCC2)c(=O)[nH]1` was tested. Which Activity [1] did it give?
**A.** 75.5%

**Q.** What about the Activity [2] of the same compound?
**A.** 104%

**Q.** And the Activity [3]?
**A.** 104%

**Q.** What about the Activity [4] of the same compound?
**A.** 98%

**Q.** What about the Activity [5] of the same compound?
**A.** 63 to 75%

**Q.** And the inhibition at 0.05 µM [6]?
**A.** 100%

**Q.** What about the Activity [7] of the same compound?
**A.** 110%

**Q.** What about the Activity [8] of the same compound?
**A.** 88%

**Q.** What about the Activity [9] of the same compound?
**A.** Dose-dependent effect

**Q.** And the Activity [10]?
**A.** 95%

**Q.** What about the Activity [11] of the same compound?
**A.** Active

**Q.** What about the Activity [12] of the same compound?
**A.** 102%

**Q.** And the Activity [13]?
**A.** Active

**Q.** And the Activity [14]?
**A.** 120%

**Q.** What about the inhibition [15] of the same compound?
**A.** -10%

**Q.** What about the Activity [16] of the same compound?
**A.** Dose-dependent effect

**Q.** What about the Activity [17] of the same compound?
**A.** 112%

**Q.** What about the Activity [18] of the same compound?
**A.** 110%

**Q.** What about the Activity [19] of the same compound?
**A.** 98.5%

**Q.** What about the Activity [20] of the same compound?
**A.** 103%

**Q.** What about the Activity [21] of the same compound?
**A.** 107%

**Q.** What about the Activity [22] of the same compound?
**A.** 102%

**Q.** What about the Activity [23] of the same compound?
**A.** 96.5%

**Q.** What about the Activity [24] of the same compound?
**A.** 101%

**Q.** What about the Activity [25] of the same compound?
**A.** 106%
